Reference: US5061626A, “Antigenic anarogues of platelet activating factor” (University of Sydney, priority 1986, dated 1991)

What was measured:
[1] = system: PAF-acetylhydrolase; assay: Determination of PAF-acetylhydrolase activity in diluted human serum (remaining PAF read by platelet aggregation); format: biochemical; conditions: human sera diluted 1 in 100 with PBS, 27 hours at 25° C.
Protocol: (§1) Sera were diluted 1 in 100 in either PBS or 0.1% "Tween" in PBS (v/v). Diluted acid-treated sera were prepared by mixing sera (1 vol.) with 0.1M citrate buffer pH 3.0 (2 vol.), and then 15 minutes later with PBS ([…].).
(§2) The solution (50μl) was then tested for platelet aggregation activity at 37° C. in a Payton dual channel aggregometer using human platelet-rich plasma (500 μl).

[2] = system: PAF-acetylhydrolase; assay: Determination of PAF-acetylhydrolase activity in diluted rabbit serum (remaining PAF read by platelet aggregation); format: biochemical; conditions: rabbit sera diluted 1 in 100 with PBS, 27 hours at 25° C.
Protocol: as §1, §2

[3] = system: PAF-antibodies; assay: Competition assay of test substance against ^3 H-PAF for binding to PAF-antibodies; parameters: species or system rabbit; conditions: ^3 H-PAF 22,676 cpm
Protocol: The resulting mixture was centrifuged, washed twice with phosphate buffered saline containing 0.1% "Tween" 20, centrifuged and the sediment transferred in water (200 μl) to the liquid scintillant "Aquasol" (3 ml) and counted in a liquid scintillation counter.

Compound | stability of PAF in serum [1] | stability of PAF in serum [2] | ASSAY COUNT ([3]; test substance 0.5 ng) | ASSAY/CONTROL ([3]; test substance 0.5 ng) | ASSAY COUNT ([3]; test substance 5 ng) | ASSAY/CONTROL ([3]; test substance 5 ng) | ASSAY COUNT ([3]; test substance 50 ng) | ASSAY/CONTROL ([3]; test substance 50 ng) | ASSAY COUNT ([3]; test substance 500 ng) | ASSAY/CONTROL ([3]; test substance 500 ng) | ASSAY COUNT ([3]; test substance 5,000 ng) | ASSAY/CONTROL ([3]; test substance 5,000 ng) | ASSAY COUNT ([3]; test substance 580 ng) | ASSAY COUNT ([3]; test substance 5,800 ng)
1-O-alkyl-2-O-acetyl-sn-glycero-3-phosphocholine [PAF] | destroyed | destroyed | 2,561 cpm | 95.2% | 2,316 cpm | 85.7% | 1,602 cpm | 57.8% | 598 cpm | 18.6% | 228 cpm | 4.1% | – | –
CCCCCCCCCCCCCCCCOC[C@@H](O)COP(=O)([O-])OCC[N+](C)(C)C [lyso-PAF] | – | – | – | – | – | – | – | – | – | – | – | – | 2,744 cpm | 2,746 cpm
lecithin | – | – | – | – | – | – | – | – | 2,545 cpm | 99.6% | 2,994 cpm | – | – | –
lyso-lecithin | – | – | – | – | – | – | – | – | 2,668 cpm | 99.4% | 2,658 cpm | 99.0% | – | –
